Several values for one entry are separate records, joined by “and”; a condition that tells them apart may be missing. Equal values may be shown once. Toxic doses and inconclusive results are not listed. Cut-off read from the data, not from the text of the source: active = T/C of 150% or more; inactive = T/C below 125%.
Test system: L1210 leukemia ip in BDF1 mice, survival T/C
Assay: NCI In Vivo Anticancer Drug Screen. Data for tumor model L1210 Leukemia (intraperitoneal) in B6D2F1 (BDF1) mice
Details: endpoint: mean survival time, higher = longer survival
Method in brief: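 Transplanted-tumor mice were given test agent; controls received vehicle only. Survival readings from the two groups were divided (treated over control).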

[1] = dose: 100.0 mg/kg/injection, schedule: Q01DX001 (ip), vehicle: Klucel (hydroxypropylcellulose) (HPC)
[2] = dose: 200.0 mg/kg/injection, schedule: Q01DX001 (ip), vehicle: Klucel (hydroxypropylcellulose) (HPC)
[3] = dose: 400.0 mg/kg/injection, schedule: Q01DX001 (ip), vehicle: Klucel (hydroxypropylcellulose) (HPC)
[4] = dose: 100.0 mg/kg/injection, schedule: Q01DX009 (ip), vehicle: Klucel (hydroxypropylcellulose) (HPC)
[5] = dose: 200.0 mg/kg/injection, schedule: Q01DX009 (ip), vehicle: Klucel (hydroxypropylcellulose) (HPC)
[6] = dose: 400.0 mg/kg/injection, schedule: Q01DX009 (ip), vehicle: Klucel (hydroxypropylcellulose) (HPC)
[7] = dose: 100.0 mg/kg/injection, schedule: Q04DX003 (ip), vehicle: Klucel (hydroxypropylcellulose) (HPC)
[8] = dose: 200.0 mg/kg/injection, schedule: Q04DX003 (ip), vehicle: Klucel (hydroxypropylcellulose) (HPC)
[9] = dose: 400.0 mg/kg/injection, schedule: Q04DX003 (ip), vehicle: Klucel (hydroxypropylcellulose) (HPC)
[10] = dose: 100.0 mg/kg/injection, schedule: Q01DX001 (ip), vehicle: saline
[11] = dose: 200.0 mg/kg/injection, schedule: Q01DX001 (ip), vehicle: saline
[12] = dose: 400.0 mg/kg/injection, schedule: Q01DX001 (ip), vehicle: saline
[13] = dose: 75.0 mg/kg/injection, schedule: Q01DX001 (ip), vehicle: saline
[14] = dose: 150.0 mg/kg/injection, schedule: Q01DX001 (ip), vehicle: saline

Measured: T/C

CC[N+]1(CC)CC[N+](CC)(CC)CC1 (tested in a mixture with another compound)
inactive: dose: 100.0 mg/kg/injection, schedule: Q04DX002 (ip), vehicle: saline 102 % of control | dose: 200.0 mg/kg/injection, schedule: Q04DX002 (ip), vehicle: saline 97 % of control | dose: 400.0 mg/kg/injection, schedule: Q04DX002 (ip), vehicle: saline 102 % of control

c1ccc(Nc2nnc(Nc3ccccc3)s2)cc1
inactive: [1] 92 % of control | [2] 103 % of control | [3] 106 % of control

c1ccc2cc(C3OCC4(CCC4)CO3)ccc2c1
inactive: [1] 94 % of control | [2] 104 % of control | [3] 104 % of control

O=C1C=C(Nc2ccc(S(=O)(=O)N(CCCl)CCCl)cc2)c2ccccc2C1=O
inactive: [4] 97 % of control | [5] 100 % of control | [6] 102 % of control

CNC(=O)N(C(C)C)C1CCCCC1
inactive: dose: 100.0 mg/kg/injection, schedule: Q04DX003 (ip), vehicle: other 102 % of control | dose: 200.0 mg/kg/injection, schedule: Q04DX003 (ip), vehicle: other 96 % of control

COc1ccc(-c2cc(C(=O)O)c3cc4ccccc4cc3n2)cc1Br
inactive: [4] 107 % of control | [5] 93 % of control | [6] 105 % of control

O=c1[nH]c2ccccc2n1C1CCN(CCCC(c2ccc(F)cc2)c2ccc(F)cc2)CC1
inactive: dose: 12.5 mg/kg/injection, schedule: Q01DX009 (ip), vehicle: Klucel (hydroxypropylcellulose) (HPC) 100 % of control | dose: 25.0 mg/kg/injection, schedule: Q01DX009 (ip), vehicle: Klucel (hydroxypropylcellulose) (HPC) 120 % of control | dose: 25.0 mg/kg/injection, schedule: Q04DX003 (ip), vehicle: Klucel (hydroxypropylcellulose) (HPC) 88 % of control | dose: 50.0 mg/kg/injection, schedule: Q04DX003 (ip), vehicle: Klucel (hydroxypropylcellulose) (HPC) 104 % of control | [4] 88 % of control | [7] 104 % of control | [8] 109 % of control | [9] 95 % of control

O=C1CCCC(=O)NNC(=O)NCCCCCCNC(=O)NN1
inactive: dose: 50.0 mg/kg/injection, schedule: Q01DX001 (ip), vehicle: saline 102 % of control | [10] 87 % of control | [11] 87 % of control | [12] 96 % of control

Cc1nc(C)c(C)s1
inactive: [4] 95 % of control | [7] 102 % of control | [5] 95 % of control | [8] 100 % of control | [6] 90 % of control | [9] 104 % of control

CCCCC1(C)CCC(=O)O1 (stereo not drawn)
inactive: dose: 66.0 mg/kg/injection, schedule: Q01DX001 (ip), vehicle: Klucel (hydroxypropylcellulose) (HPC) 101 % of control | [1] 95 % of control | dose: 150.0 mg/kg/injection, schedule: Q01DX001 (ip), vehicle: Klucel (hydroxypropylcellulose) (HPC) 96 % of control | [11] 113 % of control | [12] 91 % of control

Nc1ccc(C(=O)O)c(Cl)c1
inactive: [7] 100 % of control | [8] 99 % of control | [9] 97 % of control

CC1(C)N=C(N)N=C(N)N1c1ccc(C#N)cc1
inactive: [10] 100 % of control

CCC(=O)CC1CCCC(CC(=O)CC)N1 (stereo not drawn)
inactive: [13] 96 % of control | [14] 104 % of control

Cc1ccc(S(=O)(=O)NNC(=O)c2cc(C)c(C)cc2N)cc1
inactive: [10] 97 % of control | [11] 101 % of control | [12] 95 % of control

CC(C)CC(NC(=O)C(C)NC(=O)OCc1ccccc1)C(=O)NC(CC(C)C)C(=O)NCC(=O)NC1CCC2(C)C(CCC3C2CCC2(C)C(NC(=O)CNC(=O)C(CC(C)C)NC(=O)C(CC(C)C)NC(=O)C(C)NC(=O)OCc4ccccc4)CCC32)C1 (stereo not drawn)
inactive: dose: 100.0 mg/kg/injection, schedule: Q01DX009 (sc), vehicle: steriod suspending solution 89 % of control | dose: 100.0 mg/kg/injection, schedule: Q04DX003 (sc), vehicle: steriod suspending solution 89 % of control | dose: 200.0 mg/kg/injection, schedule: Q01DX009 (sc), vehicle: steriod suspending solution 89 % of control | dose: 200.0 mg/kg/injection, schedule: Q04DX003 (sc), vehicle: steriod suspending solution 103 % of control | dose: 400.0 mg/kg/injection, schedule: Q01DX009 (sc), vehicle: steriod suspending solution 94 % of control | dose: 400.0 mg/kg/injection, schedule: Q04DX003 (sc), vehicle: steriod suspending solution 92 % of control

COc1ccc(C(=C(CC(=O)O)C(=O)OC(C)(C)C)c2ccc(OC)c(OC)c2)cc1OC
inactive: dose: 100.0 mg/kg/injection, schedule: Q01DX001 (ip), vehicle: carboxymethylcellulose (CMC) 96 % of control | dose: 100.0 mg/kg/injection, schedule: Q01DX009 (ip), vehicle: carboxymethylcellulose (CMC) 91 % of control | dose: 200.0 mg/kg/injection, schedule: Q01DX001 (ip), vehicle: carboxymethylcellulose (CMC) 97 % of control | dose: 200.0 mg/kg/injection, schedule: Q01DX009 (ip), vehicle: carboxymethylcellulose (CMC) 95 % of control | dose: 400.0 mg/kg/injection, schedule: Q01DX001 (ip), vehicle: carboxymethylcellulose (CMC) 94 % of control | dose: 400.0 mg/kg/injection, schedule: Q01DX009 (ip), vehicle: carboxymethylcellulose (CMC) 91 % of control | dose: 600.0 mg/kg/injection, schedule: Q01DX009 (ip), vehicle: carboxymethylcellulose (CMC) 91 % of control

O=C(ON=C1C=CC(=NOC(=O)c2ccccc2)C=C1)c1ccccc1
inactive: [10] 97 % of control | [11] 102 % of control | [12] 91 % of control

CC(C)C(Cl)C(=O)O (stereo not drawn)
inactive: [13] 96 % of control | [14] 104 % of control

CCCCCCCCCCCCCCCC(=O)N(CCC#N)CCCCN(CCC#N)C(=O)CCCCCCCCCCCCCCC
inactive: dose: 50.0 mg/kg/injection, schedule: Q01DX009 (ip), vehicle: saline with Tween-80 97 % of control and 106 % of control | dose: 100.0 mg/kg/injection, schedule: Q01DX009 (ip), vehicle: saline with Tween-80 93 % of control and 90 % of control | dose: 200.0 mg/kg/injection, schedule: Q01DX009 (ip), vehicle: saline with Tween-80 95 % of control and 102 % of control | dose: 300.0 mg/kg/injection, schedule: Q01DX009 (ip), vehicle: saline with Tween-80 92 % of control | dose: 400.0 mg/kg/injection, schedule: Q01DX009 (ip), vehicle: saline with Tween-80 98 % of control and 92 % of control | dose: 500.0 mg/kg/injection, schedule: Q01DX009 (ip), vehicle: saline with Tween-80 92 % of control

CCN(CC)CCNCc1ccccc1
inactive: dose: 25.0 mg/kg/injection, schedule: Q01DX003 (ip), vehicle: saline 99 % of control | dose: 50.0 mg/kg/injection, schedule: Q01DX003 (ip), vehicle: saline 97 % of control | dose: 75.0 mg/kg/injection, schedule: Q01DX003 (ip), vehicle: saline 99 % of control | dose: 75.0 mg/kg/injection, schedule: Q04DX003 (ip), vehicle: saline 97 % of control

O=C(O)c1nc(SCc2ccccc2)n(Cc2ccccc2)c1C(=O)O
inactive: dose: 100.0 mg/kg/injection, schedule: Q04DX002 (ip), vehicle: carboxymethylcellulose (CMC) 97 % of control and 89 % of control | dose: 100.0 mg/kg/injection, schedule: Q04DX003 (ip), vehicle: carboxymethylcellulose (CMC) 94 % of control and 97 % of control | dose: 200.0 mg/kg/injection, schedule: Q04DX002 (ip), vehicle: carboxymethylcellulose (CMC) 94 % of control and 115 % of control | dose: 200.0 mg/kg/injection, schedule: Q04DX003 (ip), vehicle: carboxymethylcellulose (CMC) 97 % of control and 98 % of control | dose: 400.0 mg/kg/injection, schedule: Q04DX002 (ip), vehicle: carboxymethylcellulose (CMC) 97 % of control and 87 % of control | dose: 400.0 mg/kg/injection, schedule: Q04DX003 (ip), vehicle: carboxymethylcellulose (CMC) 96 % of control
